Reference: article PMC12664493, “Asparagine endopeptidase (AEP) inhibitor formulation via zein-based nanoparticle improves the therapeutic efficacy toward Alzheimer's disease” (Neurotherapeutics, 2025)
Where two headings read alike, the source gives them in different places.

Legend:
BCRP = biological target: T1, BCRP (Homo sapiens, UniProt Q9UNQ0); assay: Caco-2-BCRP assay with and without Ko143; type: in vitro ADME; conditions: human, Caco-2, Ko143 0 μM
T1 construct: endogenous in cells; host or cells: Caco-2
T1 sequence (Q9UNQ0 1-655): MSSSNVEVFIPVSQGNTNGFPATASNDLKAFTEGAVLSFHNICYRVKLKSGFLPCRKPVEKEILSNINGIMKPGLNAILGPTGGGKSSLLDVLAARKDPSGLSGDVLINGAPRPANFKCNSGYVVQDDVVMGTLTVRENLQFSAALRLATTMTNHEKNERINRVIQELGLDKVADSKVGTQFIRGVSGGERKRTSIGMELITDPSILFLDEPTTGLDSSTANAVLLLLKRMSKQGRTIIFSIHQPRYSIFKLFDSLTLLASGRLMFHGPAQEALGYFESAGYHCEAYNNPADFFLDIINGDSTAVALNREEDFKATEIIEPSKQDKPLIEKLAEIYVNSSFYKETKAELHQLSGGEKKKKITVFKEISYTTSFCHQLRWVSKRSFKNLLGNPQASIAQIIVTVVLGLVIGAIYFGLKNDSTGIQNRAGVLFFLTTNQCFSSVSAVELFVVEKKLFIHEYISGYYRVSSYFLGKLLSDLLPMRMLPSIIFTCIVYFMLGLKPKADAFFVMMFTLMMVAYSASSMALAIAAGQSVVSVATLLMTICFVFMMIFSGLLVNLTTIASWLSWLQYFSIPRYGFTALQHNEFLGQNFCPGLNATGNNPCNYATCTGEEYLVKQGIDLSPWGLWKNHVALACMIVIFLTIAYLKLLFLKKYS

recombinant AEP enzyme = biological target: T2, recombinant AEP enzyme (Homo sapiens, UniProt Q99538); assay: In vitro AEP enzymatic inhibition assay; type: biochemical; conditions: read-out: IC50 toward recombinant AEP enzyme (in vitro)
T2 sequence (Q99538 18-433): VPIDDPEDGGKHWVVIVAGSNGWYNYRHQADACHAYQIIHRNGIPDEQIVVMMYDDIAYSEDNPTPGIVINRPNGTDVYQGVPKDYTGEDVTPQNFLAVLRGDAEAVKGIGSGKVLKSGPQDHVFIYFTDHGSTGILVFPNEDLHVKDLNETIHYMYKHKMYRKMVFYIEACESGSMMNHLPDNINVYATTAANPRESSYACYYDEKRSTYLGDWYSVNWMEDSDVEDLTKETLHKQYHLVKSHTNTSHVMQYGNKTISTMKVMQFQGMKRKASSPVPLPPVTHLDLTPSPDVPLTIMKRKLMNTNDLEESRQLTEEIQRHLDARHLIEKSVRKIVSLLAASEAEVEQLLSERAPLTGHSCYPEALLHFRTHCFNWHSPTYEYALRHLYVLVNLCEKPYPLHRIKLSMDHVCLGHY
Method: AEP activity was assessed as previously described [21]. Tissue homogenates (10 ​μg protein) were incubated with 20 ​μM AEP-specific fluorogenic substrate in 200 ​μL of optimized assay buffer (20 ​mM citric acid, 60 ​mM Na2HPO4, 1 ​mM EDTA, 0.1 ​% CHAPS, 1 ​mM DTT; pH 6.0) to quantify enzymatic activity. Reactions were performed at 37 ​°C in a temperature-controlled microplate reader (BioTek Synergy HTX Multimode Reader, Agilent, California, USA). AEP-mediated cleavage of the substrate, liberating fluorescent 7-amino-4-methylcoumarin (AMC), was monitored kinetically by measuring emission at 460 ​nm (excitation: 380 ​nm) every 5 ​min over 60-min. Fluorescence values were normalized to background signal from substrate-free controls, and enzyme activity was calculated as the rate of AMC generation (RFU/min/μg protein) during the linear phase of the reaction.

AEP [1] = biological target: T3, AEP (Rattus norvegicus, UniProt Q9R0J8); assay: AEP inhibition in cultured primary neurons; type: cell-based
T3 construct: endogenous in cells; host or cells: primary rat cortical neurons
T3 sequence (Q9R0J8 18-435): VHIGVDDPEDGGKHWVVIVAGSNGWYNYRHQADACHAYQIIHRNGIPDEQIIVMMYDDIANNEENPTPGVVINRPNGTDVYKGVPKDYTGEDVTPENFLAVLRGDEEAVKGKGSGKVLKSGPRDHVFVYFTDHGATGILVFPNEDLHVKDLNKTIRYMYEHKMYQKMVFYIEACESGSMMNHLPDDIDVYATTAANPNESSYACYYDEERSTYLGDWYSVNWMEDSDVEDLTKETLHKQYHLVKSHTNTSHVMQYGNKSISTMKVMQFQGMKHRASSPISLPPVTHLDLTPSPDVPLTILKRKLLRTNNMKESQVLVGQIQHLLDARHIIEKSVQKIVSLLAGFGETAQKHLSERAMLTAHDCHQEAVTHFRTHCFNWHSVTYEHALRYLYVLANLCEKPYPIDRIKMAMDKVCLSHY

Solubility (pH 7.4, PBS) = type: physicochemical
[2] = Stability in human liver microsomes; type: in vitro ADME; conditions: for half-life: read-out: Stability-Microsomes T1/2
[3] = Stability in mouse liver microsomes; type: in vitro ADME; conditions: for half-life: read-out: Stability-Microsomes T1/2
[4] = Stability in human hepatocytes; type: in vitro ADME; conditions: for half-life: read-out: Stability-Hepatocytes T1/2
[5] = Stability in mouse hepatocytes; type: in vitro ADME
[6] = Stability in human plasma; type: in vitro ADME; conditions: read-out: Stability-Plasma T1/2
[7] = Stability in mouse plasma; type: in vitro ADME; conditions: read-out: Stability-Plasma T1/2
[8] = Plasma protein binding, human; type: in vitro ADME
[9] = Plasma protein binding, mouse; type: in vitro ADME
[10] = PAMPA-BBB permeability assay; type: in vitro ADME; conditions: read-out: Permeability-PAMPA-BBB Pe
Caco-2 permeability = type: in vitro ADME; conditions: human; for Papp A→B: first value of the cell
P-glycoprotein (MDR1) = biological target: T4, P-glycoprotein (MDR1) (Homo sapiens, UniProt P08183); assay: MDR1-MDCKII permeability assay (P-glycoprotein efflux); type: in vitro ADME; conditions: dog, MDCK-MDR1; for Papp A→B: first value in brackets; for Papp B→A: second value in brackets
T4 construct: expressed in transfected cells; host or cells: MDCKII
T4 sequence (P08183 whole entry): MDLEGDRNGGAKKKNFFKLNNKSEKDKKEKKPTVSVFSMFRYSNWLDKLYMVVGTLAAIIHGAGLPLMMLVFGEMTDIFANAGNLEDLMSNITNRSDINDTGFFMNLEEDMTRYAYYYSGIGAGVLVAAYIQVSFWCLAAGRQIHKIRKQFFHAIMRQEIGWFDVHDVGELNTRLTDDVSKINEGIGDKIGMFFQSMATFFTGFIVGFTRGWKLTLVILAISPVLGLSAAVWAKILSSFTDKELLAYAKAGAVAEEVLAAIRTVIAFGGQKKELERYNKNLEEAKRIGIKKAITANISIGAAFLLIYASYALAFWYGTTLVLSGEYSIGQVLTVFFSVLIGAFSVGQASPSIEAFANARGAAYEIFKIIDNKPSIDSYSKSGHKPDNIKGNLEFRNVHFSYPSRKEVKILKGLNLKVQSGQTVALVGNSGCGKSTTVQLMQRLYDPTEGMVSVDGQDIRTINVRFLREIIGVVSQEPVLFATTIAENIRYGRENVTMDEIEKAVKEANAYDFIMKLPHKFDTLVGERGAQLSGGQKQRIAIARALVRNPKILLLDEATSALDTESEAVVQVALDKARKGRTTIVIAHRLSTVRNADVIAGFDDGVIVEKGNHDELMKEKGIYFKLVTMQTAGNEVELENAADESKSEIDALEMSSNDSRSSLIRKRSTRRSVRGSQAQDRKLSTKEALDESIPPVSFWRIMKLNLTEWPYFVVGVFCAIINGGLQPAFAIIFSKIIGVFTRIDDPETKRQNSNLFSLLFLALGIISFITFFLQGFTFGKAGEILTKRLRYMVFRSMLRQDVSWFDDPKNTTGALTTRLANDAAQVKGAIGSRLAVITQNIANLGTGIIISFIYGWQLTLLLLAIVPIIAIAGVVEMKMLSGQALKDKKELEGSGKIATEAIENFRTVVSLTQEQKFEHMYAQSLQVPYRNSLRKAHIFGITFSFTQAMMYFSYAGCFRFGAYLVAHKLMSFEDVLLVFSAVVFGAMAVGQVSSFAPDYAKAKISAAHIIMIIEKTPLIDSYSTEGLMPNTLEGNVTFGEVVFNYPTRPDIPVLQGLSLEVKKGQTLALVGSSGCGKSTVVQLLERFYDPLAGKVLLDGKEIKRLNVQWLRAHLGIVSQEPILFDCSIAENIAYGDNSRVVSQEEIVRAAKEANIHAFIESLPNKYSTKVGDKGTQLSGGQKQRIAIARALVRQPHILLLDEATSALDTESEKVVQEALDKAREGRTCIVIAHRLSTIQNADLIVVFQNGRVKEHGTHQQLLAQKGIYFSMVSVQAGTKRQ

hERG K+ channel = hERG K+ channel (Homo sapiens, UniProt Q12809); assay: hERG inhibition assay
Sequence of hERG K+ channel (Q12809 whole entry): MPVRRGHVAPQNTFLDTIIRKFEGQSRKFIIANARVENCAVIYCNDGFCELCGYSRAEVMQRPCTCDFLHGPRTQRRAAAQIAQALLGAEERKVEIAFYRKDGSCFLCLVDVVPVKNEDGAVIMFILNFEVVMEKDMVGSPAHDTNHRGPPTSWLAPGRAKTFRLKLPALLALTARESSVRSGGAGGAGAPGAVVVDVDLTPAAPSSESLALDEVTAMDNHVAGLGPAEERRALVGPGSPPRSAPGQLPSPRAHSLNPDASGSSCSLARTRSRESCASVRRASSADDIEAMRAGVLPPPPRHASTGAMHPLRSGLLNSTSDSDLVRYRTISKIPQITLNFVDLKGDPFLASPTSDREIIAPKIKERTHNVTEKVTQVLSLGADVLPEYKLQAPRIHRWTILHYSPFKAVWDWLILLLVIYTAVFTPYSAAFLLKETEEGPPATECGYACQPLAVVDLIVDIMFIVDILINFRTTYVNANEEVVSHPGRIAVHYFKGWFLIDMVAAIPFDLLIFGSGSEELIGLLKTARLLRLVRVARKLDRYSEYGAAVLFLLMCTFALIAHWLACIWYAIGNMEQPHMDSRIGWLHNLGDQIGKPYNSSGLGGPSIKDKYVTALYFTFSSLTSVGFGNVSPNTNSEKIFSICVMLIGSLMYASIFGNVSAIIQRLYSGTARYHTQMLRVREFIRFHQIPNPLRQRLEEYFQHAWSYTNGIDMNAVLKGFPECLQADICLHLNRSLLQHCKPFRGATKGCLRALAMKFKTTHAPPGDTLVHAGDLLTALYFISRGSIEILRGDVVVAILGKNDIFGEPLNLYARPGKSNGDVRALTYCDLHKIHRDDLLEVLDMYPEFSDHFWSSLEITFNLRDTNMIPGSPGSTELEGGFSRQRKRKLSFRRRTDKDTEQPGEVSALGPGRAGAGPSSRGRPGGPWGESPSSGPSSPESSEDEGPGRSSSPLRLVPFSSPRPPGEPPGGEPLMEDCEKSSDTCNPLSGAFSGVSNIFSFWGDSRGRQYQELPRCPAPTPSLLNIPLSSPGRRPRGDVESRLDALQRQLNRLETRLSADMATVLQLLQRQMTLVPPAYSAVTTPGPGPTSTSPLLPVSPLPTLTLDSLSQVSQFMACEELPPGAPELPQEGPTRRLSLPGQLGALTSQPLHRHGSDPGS

[11] = Stability in rat hepatocytes; type: in vitro ADME
[12] = Plasma and brain concentrations after acute oral treatment of 3xTg mice; type: in vivo; conditions: both sexes, mouse, plasma, 7.5 mg/kg, P.O. 7.5 mg/kg, read-out: Concentration in plasma, Serum Mean
From the text: Blood and brain tissues were collected at 0, 0.08, 0.25, 0.5, 1, 2, 4, and 8 h post-administration.

AEP [13] = biological target: T5, AEP (Mus musculus, UniProt O89017); assay: Acute PD in 3xTg mice: brain AEP enzymatic activity and immunoblotting; type: in vivo; conditions: 2 h
T5 construct: from tissue; host or cells: brain / hippocampus of 3xTg mice
T5 sequence (O89017 18-435): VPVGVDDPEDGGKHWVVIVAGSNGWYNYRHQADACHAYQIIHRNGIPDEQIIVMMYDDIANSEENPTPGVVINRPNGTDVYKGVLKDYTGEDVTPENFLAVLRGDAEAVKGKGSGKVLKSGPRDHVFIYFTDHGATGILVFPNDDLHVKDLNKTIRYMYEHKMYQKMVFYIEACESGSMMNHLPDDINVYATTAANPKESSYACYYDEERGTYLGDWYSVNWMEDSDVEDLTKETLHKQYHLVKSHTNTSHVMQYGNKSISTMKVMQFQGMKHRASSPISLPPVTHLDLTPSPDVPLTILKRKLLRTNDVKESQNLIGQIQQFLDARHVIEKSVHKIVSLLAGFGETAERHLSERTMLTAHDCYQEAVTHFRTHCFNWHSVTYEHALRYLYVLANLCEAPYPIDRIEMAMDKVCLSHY

AEP [14] = biological target: T5, AEP; assay: Chronic one-month oral treatment of 3xTg mice: AEP activation and substrate cleavage; type: in vivo; conditions: 7.5 mg/kg P.O. daily
3xTg mice = assay: Y-maze test in 3xTg mice; type: in vivo, mouse; conditions: 7.5 mg/kg P.O. daily, one month
From the text: Blood and brain tissues were collected at 0, 0.08, 0.25, 0.5, 1, 2, 4, and 8 h post-administration. For acute pharmacodynamic (PD) assessments, male and female 3xTg mice received oral doses of NP-11a-isopropyl at 7.5 mg/kg or 15 mg/kg, and blood and brain samples were collected 2 h after treatment.
The Y-maze test was employed to evaluate spatial working memory and spontaneous alternation behavior, a measure of natural exploratory pattern integrity. The apparatus comprised three symmetrical opaque arms (A, B, C; 30 cm length × 8 cm width × 15 cm height) intersecting at 120° angles to form a Y-shaped configuration. Mice were habituated to the maze during a 5-min acclimatization period to minimize novelty-induced anxiety. Following habituation, spontaneous exploration was recorded for 8 min using an overhead camera, with all trials conducted under consistent low-light conditions to reduce environmental stress. EthoVision XT 12 software (Noldus, Wageningen, The Netherlands) quantified total arm entries, entry sequences, and alternation patterns (consecutive entries into three distinct arms without repetition). The maze was thoroughly cleaned with 70 % ethanol between trials to eliminate olfactory cues.

[15] = design: method as in PMID 38030711; conditions: cited from earlier work
[16] = aqueous buffer, pH 7.4, read-out: Solubility (pH, media)
[17] = read-out: Stability-Hepatocytes T1/2

In the case of `CC(C)(C)NCC(O)COc1cccc2c1CC(O)C(O)C2` (centres unmarked) [Nadolol, reference compound], the Papp A→B (BCRP) is reported as 2.72 nm/s, the Papp B→A (BCRP) is reported as 6.79 nm/s and the recovery (BCRP; read-out: Recovery (%) A→B) is reported as 91.5%. The recovery (BCRP; read-out: Recovery (%) B→A) was 106%.
Compound `OCc1cc(Nc2nnc(N3CCCC3)s2)c2nonc2c1N1CCOCC1` [11a-pentyl] has an IC50 (recombinant AEP enzyme) of 0.0147 µM, an IC50 (AEP [1]) of 0.055 µM and a solubility (Solubility (pH 7.4, PBS); [16]) of 5.03 mg/mL. For the same compound, the solubility (Solubility (pH 7.4, PBS); pH 7.4, aqueous buffer, pH7.4, read-out: Solubility (pH, media)) was 12.5 mM, the microsomal CLint [2] was 45.5 µL/min/mg and the half-life [2] was 0.508 h. For the same compound, the microsomal CLint [3] was 302 µL/min/mg, the half-life [3] was 0.0765 h and the hepatocyte CLint [4] was 31.3 µL/min/1e6 cells. The half-life [4] was over 0.738 h, the hepatocyte CLint [5] was 28.5 µL/min/1e6 cells and the half-life [5, 17] was over 0.81 h. For the same compound, the half-life [6] was over 8 h, the half-life [7] was over 8 h and the “Plasma Protein F u, plasma(%)” value [8] was 6.4%. For the same compound, the “Plasma Protein F u, plasma(%)” value [9] was 20%, the Papp [10] was 104 nm/s and the efflux ratio (Caco-2 permeability) was 1.28. It also gave a Papp A→B (Caco-2 permeability) of 118 nm/s, a Papp B→A (Caco-2 permeability; value after the slash, head names only a-b, read-out: Permeability-Caco-2 Papp, second value of the cell (taken as b-a)) of 148 nm/s and a Papp A→B (P-glycoprotein (MDR1)) of 14.4 nm/s. For the same compound, the Papp B→A (P-glycoprotein (MDR1)) was 605 nm/s, the efflux ratio (P-glycoprotein (MDR1); third value of the cell, not given, read-out: Permeability-MDR1-MDCKII, value after the brackets (efflux ratio)) was 42.1 and the IC50 (hERG K+ channel) was over 10 µM.
For `CC(C)NCC(O)COc1cccc2ccccc12` (centres unmarked) [Propranolol, reference compound], the Papp A→B (BCRP) was 293 nm/s, the Papp B→A (BCRP) was 305 nm/s and the recovery (BCRP; read-out: Recovery (%) A→B) was 93.5%. The recovery (BCRP; read-out: Recovery (%) B→A) was 102%.
Compound `CNc1nnc(Nc2cc(CO)c(N3CCOCC3)c3nonc23)s1` [11a] has an IC50 (AEP [1]) of 0.045 µM, a solubility (Solubility (pH 7.4, PBS); [16]) of 150 mg/mL and a microsomal CLint [2] of 12.8 µL/min/mg. It also gave a half-life [2] of over 3 h, a microsomal CLint [3] of 19.9 µL/min/mg and a half-life [3] of 1.93 h. The hepatocyte CLint [4] was 4.1 µL/min/1e6 cells, the half-life [4] was 5.67 h and the hepatocyte CLint [11] was 3 µL/min/1e6 cells. The half-life [11, 17] was over 8 h, the half-life [6] was over 8 h and the half-life [7] was over 8 h. The “Plasma Protein F u, plasma(%)” value [8] was 43.3%, the “Plasma Protein F u, plasma(%)” value [9] was 26.9% and the Papp [10] was 16.2 nm/s. The Papp A→B (Caco-2 permeability) was 106 nm/s, the Papp A→B (P-glycoprotein (MDR1)) was 7.8 nm/s and the Papp B→A (P-glycoprotein (MDR1)) was 292 nm/s. For the same compound, the “hERG IC50” value (hERG K+ channel) was “negative”, the concentration at 2 h [12] was 0.161 µg/mL and the “AEP enzymatic activity in the brain” value (AEP [13]; acute P.O. 7.5 and 15 mg/kg, dose-dependent) was “substantially inhibited”. The “Active AEP band intensity, hippocampus immunoblotting” value (AEP [13]; acute P.O.) was “reduced”, the “AEP activation, APP N585 and Tau N368 fragmentation, hippocampus immunoblotting” value (AEP [14]) was “gradually reduced” and the “Cognitive function in the Y maze” value (3xTg mice) was “significantly improved”. The “Brain Cmax” value ([15]; 11a at 10 mg/kg) was 0.027012 µg/mL, the “Brain AUC” value ([15]; oral administration) was 128.980 and the “Plasma AUC” value ([15]; oral administration) was 516.028.
